In US8778342B2, “Antibody therapy” (Immunomedics, Inc., priority 2002, dated 2014):
Entries after “also recorded” stand apart in the source; their conditions may differ.

How the values were obtained:
[1] = test system: TT (human medullary thyroid) tumor cells; assay type: in vivo; conditions: DTIC 75 μg/dose days 2, 3, 4, hMN-14 100 μg/dose from day 2; for mice with no palpable tumor at 7 weeks: 10 mice/group
TT tumors = test: Naked anti-CEA MAb alone on growth of TT tumors in nude mice; conditions: for tumors less than 0.5 cm^3: at day-37, 0.5 mg/mouse weekly x4, untreated 40%
[2] = test system: GW-39 human colorectal tumors; test: Survival in GW-39 intrapulmonary micrometastasis model in nude mice; conditions: for increase of median survival time: FIG. 18, single agent versus untreated
TT MTC xenografts = test: Chemotherapy of TT MTC xenografts in nude mice; assay type: in vivo, human; conditions: for growth inhibition of TT xenografts, drug given individually: doses of FIG. 3; for Mean survival time: untreated control 4 weeks
CEA = molecular target: T1, CEA (Homo sapiens, UniProt P06731); conditions: Hansen et al., Cancer 71:3478 (1993); cited from earlier work
T1 sequence (P06731 35-676): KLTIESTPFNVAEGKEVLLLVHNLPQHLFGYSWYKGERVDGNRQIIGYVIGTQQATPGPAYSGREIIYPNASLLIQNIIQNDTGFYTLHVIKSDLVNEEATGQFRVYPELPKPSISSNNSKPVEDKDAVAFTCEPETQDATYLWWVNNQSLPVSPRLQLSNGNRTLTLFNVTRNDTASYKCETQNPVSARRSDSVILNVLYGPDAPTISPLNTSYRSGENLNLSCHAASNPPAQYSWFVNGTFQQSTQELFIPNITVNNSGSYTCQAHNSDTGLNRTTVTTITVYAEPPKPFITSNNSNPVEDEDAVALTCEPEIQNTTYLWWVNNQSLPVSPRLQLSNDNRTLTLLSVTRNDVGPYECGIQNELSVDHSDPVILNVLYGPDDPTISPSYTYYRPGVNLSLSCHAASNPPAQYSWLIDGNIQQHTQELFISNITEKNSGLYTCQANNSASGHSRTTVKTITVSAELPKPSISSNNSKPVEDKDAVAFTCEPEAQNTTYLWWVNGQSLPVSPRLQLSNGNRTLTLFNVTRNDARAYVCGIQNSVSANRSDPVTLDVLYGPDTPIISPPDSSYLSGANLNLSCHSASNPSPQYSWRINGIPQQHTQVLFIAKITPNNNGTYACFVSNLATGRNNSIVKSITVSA

[3] = molecular target: T2, normal cross reactive antigen, NCA (Homo sapiens, UniProt P40199); conditions: Hansen et al., Cancer 71:3478 (1993); cited from earlier work
T2 sequence (P40199 35-320): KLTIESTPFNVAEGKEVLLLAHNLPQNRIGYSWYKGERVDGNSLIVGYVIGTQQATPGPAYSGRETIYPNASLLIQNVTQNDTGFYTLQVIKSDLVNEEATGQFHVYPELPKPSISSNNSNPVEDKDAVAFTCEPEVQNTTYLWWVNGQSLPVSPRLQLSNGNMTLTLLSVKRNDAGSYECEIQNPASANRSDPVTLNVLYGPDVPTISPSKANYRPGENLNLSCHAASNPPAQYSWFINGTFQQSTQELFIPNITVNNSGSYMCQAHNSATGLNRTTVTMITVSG

meconium antigen = conditions: Hansen et al., Cancer 71:3478 (1993); cited from earlier work
TT cells = test: Flow cytometry reactivity with TT cells
[4] = FIG. 16 advanced colon cancer model, single agents

hMN-14: humanized (CDR-grafted) Class III anti-CEA monoclonal antibody MN-14, naked
Mean tumor volumes at 7 weeks [1]: 0.899±0.545 cm^3 | mice with no palpable tumor at 7 weeks [1]: 0/10 | delay / inhibition of tumor growth ([1]; nude mice): Significant delays in tumor growth; also recorded: significant effect on inhibiting tumor growth | mean tumor sizes versus untreated animals (TT tumors; 0.5 mg single i.v. injection eleven days post tumor cell injection): no significant differences | tumor growth versus untreated group (TT tumors; 0.5 mg single i.v. injection on day-1 post tumor injection): significant growth delay | inhibition of tumor size compared to the untreated animals (TT tumors; 0.5 mg single i.v. injection one day post tumor cell injection, between day-32 and day-60): 64-70% | tumors less than 0.5 cm^3 (TT tumors): 87% | effect on survival [2, 4]: No effect | effect on survival ([2]; FIG. 17 reduced tumor burden model, 5% tumor cell suspension): no apparent effect | increase of median survival time ([2]; 5% tumor cell suspension): 21% | efficacy on high (interferon-gamma induced) versus low CEA-expressing tumor cells ([2]; FIG. 21): improved efficacy

O=P1(N(CCCl)CCCl)NCCCO1 (stereo not shown) [cyclophosphamide]
growth inhibition of TT xenografts, drug given individually (TT MTC xenografts): significant growth inhibition | Log rank analysis of survival versus the untreated group (TT MTC xenografts; individual drugs): significant difference | Mean survival time (TT MTC xenografts): 8 weeks

CC[C@]1(O)C[C@H]2CN(CCc3c([nH]c4ccccc34)[C@@](C(=O)OC)(c3cc4c(cc3OC)N(C=O)[C@H]3[C@@](O)(C(=O)OC)[C@H](OC(C)=O)[C@]5(CC)C=CCN6CC[C@]43[C@@H]65)C2)C1 [vincristine]
growth inhibition of TT xenografts, drug given individually (TT MTC xenografts): not

COc1cccc2c1C(=O)c1c(O)c3c(c(O)c1C2=O)C[C@@](O)(C(=O)CO)C[C@@H]3O[C@H]1C[C@H](N)[C@H](O)[C@H](C)O1 [doxorubicin]
growth inhibition of TT xenografts, drug given individually (TT MTC xenografts): significant growth inhibition

CN(C)/N=N/c1[nH]cnc1C(N)=O [DTIC, dacarbazine, reference compound]
Mean tumor volumes at 7 weeks [1]: 0.284 ± 0.197 cm^3 | mice with no palpable tumor at 7 weeks [1]: 1/10 | Mean survival time (TT MTC xenografts): 11 weeks

hLL2: negative control humanized MAb, anti-CD22 [reference compound]
tumors less than 0.5 cm^3 (TT tumors): 29%

CCc1c2c(nc3ccc(OC(=O)N4CCC(N5CCCCC5)CC4)cc13)-c1cc3c(c(=O)n1C2)COC(=O)[C@]3(O)CC [CPT-11, irinotecan]
median survival time ([2]; 10% GW-39 cell suspension, treatment from day 0, CPT-11 10% MTD (80 μg/d x 5 days), hMN14 100 μg/d, untreated 56 days): 63 days | median survival ([2]; FIG. 16 advanced colon cancer model, hMN-14 100 μg/day from day 0, CPT-11 60 μg/day over 5 days): 63 days | effect on survival [2, 4]: only a modest effect | median survival time ([2]; FIG. 17 reduced tumor burden model, 5% tumor cell suspension, dosages of Example 14): 70 days | increase of median survival time ([2]; 5% tumor cell suspension): 76% | median survival ([2]; pretreatment study, CPT-11 on day 0, alone or co-treatment with hMN-14, untreated 35 days): 63 days | median survival ([2]; pretreatment study, CPT-11 on day 3, alone or after 3-day pretreatment with hMN-14, untreated 35 days): 70 days

B1: murine MN-14: murine Class III anti-CEA MAb, reacting with CEA, unreactive with NCA and meconium antigen (antibody, listed as Mus sp., V domains shown)
VH: EVKLLESGGGLVQSGGSLKLSCAASGFDFTTYWMSWVRQAPGKGLEWIGEIHPDSSTINYAPSLKDKFIVSRDNAKNTLYLQMSKVRSEDTALYYCASLYFGFPWFAYWGQGTPVTVSA
VL: EIQLTQSHKMMSTSVGDRVSITCKASQDVGTSVAWYQQRPGQSPKLLIYWTSTRHTGVPDRFTGSVSGTDFTLTITNVQSEDLADYFCQQYSLYRSFGGGTKLEIK
modifications: constant regions
reactivity with CEA (CEA): reacting with CEA | reactivity with NCA [3]: unreactive | reactivity with meconium antigen (meconium antigen): unreactive | reactivity with TT cells by flow cytometry (TT cells): react with TT cells
